The text below walks through data of US20250074910A1, “MENIN INHIBITOR AND USE THEREOF” (HITGEN INC., priority 2021, published 2025).

In data set [1] the test system is OCI-AML3. Kind of data set: Cell proliferation inhibition (CellTiter-Glo), OCI-AML3 (NPM1 mutation). It counts as cell-based. As to conditions: Homo sapiens, OCI-AML-3, 168 h, OCI-AML3 cells. An outline of the steps:
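IC50 values come from dose-response fitting of CellTiter-Glo luminescence after 72-168 h compound exposure (final 1 nM-10 μM) at 37° C and 5% CO2, with 5,000-20,000 cells plated per well.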
(In ATP-based viability assays light output follows the ATP content of the culture.)

Data set [2] is described as follows: Pharmacokinetics test in mouse. The class given is in vivo, ICR mice. As to conditions: mice, p.o. 10 mg/kg; for AUC(0-t) / half-life / Cmax: male, ICR, mouse, plasma, po, 10 mg/kg; for Cmax: read-out: Cmax; for F, %: 1 mg/kg for intravenous injection. From the text: Test Example 4. In Vivo Pharmacokinetic Study
Test purpose: To determine the pharmacokinetic properties of some of the example compounds of the present disclosure in mice, rats and dogs after single intravenous injection (i.v.) and oral gavage (i.g.) administration by LC-MS/MS method.
Research methods: An appropriate amount of compound was weighed and prepared into a transparent clear solution of a certain concentration using 0.9% sodium chloride injection and 1.5 equivalents of 1M HCl aqueous solution based on the molar number of the compound. After SPF male ICR mice, SPF male SD rats, and male beagle dogs were fasted overnight, the test compound solution was given by intravenous injection and oral gavage at the corresponding dose. Anticoagulated whole blood of the test animals was collected at 5 min, 15 min, 30 min, 1 h, 2 h, 4 h, 8 h, and 24 h after administration, and plasma was separated. Plasma samples at each time point were detected by LC-MS/MS, and the plasma concentration of the compound was determined by the standard curve correction method. Phoenix WinNonlin 5.2 non-compartmental model was used to calculate the pharmacokinetic parameters of terminal elimination half-life (t½), blood peak concentration (Cmax), area under the concentration-time curve (AUC), clearance (CL), and bioavailability (F %), which was directly obtained from the serum concentration results. Blood drug concentration and pharmacokinetic parameters are expressed as mean±standard deviation (X±SD). The specific test protocols for each species are as follows.
Pharmacokinetics Test in Mouse
Test animals: SPF male ICR mice, weighing 25-30 g, 12 mice/compound, purchased from Chengdu Dossy Experimental Animal Co., Ltd.
Test design: On the day of the test, ICR mice were randomly divided into groups according to body weight, fasted but with free water for 12-14 h one day before administration, and fed 2 h after administration.
Preparation of test compound solution: The concentration of the test compound for oral gavage was 1 mg/mL. An appropriate amount of compound was weighed and prepared into a 1 mg/mL transparent clear solution using 0.9% sodium chloride injection and 1.5 equivalents of 1M HCl aqueous solution. The concentration of the test compound for intravenous injection was 0.2 mg/mL. The 1 mg/mL transparent clear solution was diluted to a concentration of 0.2 mg/mL using 0.9% sodium chloride injection. The volume of 1 M HCl solution added was calculated as: volume of 1 M HCl solution added […]=weighed amount of compound (mg)/molecular weight×1.5×1000. The amount added during preparation must not exceed the calculated value.
The test substance was administered as follows: intravenous injection: 1 mg/kg of dose, 5 mL/kg of volume, 6 mice; oral gavage: 10 mg/kg of dose, 10 mL/kg of volume, 6 mice.
Sample collection: Blood (40-50 μl) was collected in anticoagulant tubes sprayed with EDTA-K2 through the orbital venous plexus at 5 min, 15 min, 30 min, 1 h, 2 h, 4 h, 8 h, and 24 h after administration, and centrifuged at 10,000 rpm for 20 min within 1 h (the blood was saved on wet ice before and after centrifugation). The supernatant, which was plasma, was collected and frozen in a refrigerator at −20° C. or below for LC-MS/MS analysis of Full PK of male ICR mice (2 mice per group, 4 blood collection time points per mouse, crossover).

The target of data set [3] is hERG potassium ion channel (Homo sapiens (Human), UniProt Q12809). Kind of data set: hERG potassium channel effect test (manual patch clamp, HEK293 cells overexpressing hERG). It counts as cell-based. As to conditions: for inhibition at 30 μM: human, HEK293 cells overexpressing hERG potassium ion channels, read-out: Average inhibition rate of hERG current at the highest compound tested concentration; for IC50: manual patch clamp, highest test concentration 30 μM. On the procedure: Test Example 6: hERG Potassium Channel Effect Test
Sequence of hERG potassium ion channel (Q12809 whole entry): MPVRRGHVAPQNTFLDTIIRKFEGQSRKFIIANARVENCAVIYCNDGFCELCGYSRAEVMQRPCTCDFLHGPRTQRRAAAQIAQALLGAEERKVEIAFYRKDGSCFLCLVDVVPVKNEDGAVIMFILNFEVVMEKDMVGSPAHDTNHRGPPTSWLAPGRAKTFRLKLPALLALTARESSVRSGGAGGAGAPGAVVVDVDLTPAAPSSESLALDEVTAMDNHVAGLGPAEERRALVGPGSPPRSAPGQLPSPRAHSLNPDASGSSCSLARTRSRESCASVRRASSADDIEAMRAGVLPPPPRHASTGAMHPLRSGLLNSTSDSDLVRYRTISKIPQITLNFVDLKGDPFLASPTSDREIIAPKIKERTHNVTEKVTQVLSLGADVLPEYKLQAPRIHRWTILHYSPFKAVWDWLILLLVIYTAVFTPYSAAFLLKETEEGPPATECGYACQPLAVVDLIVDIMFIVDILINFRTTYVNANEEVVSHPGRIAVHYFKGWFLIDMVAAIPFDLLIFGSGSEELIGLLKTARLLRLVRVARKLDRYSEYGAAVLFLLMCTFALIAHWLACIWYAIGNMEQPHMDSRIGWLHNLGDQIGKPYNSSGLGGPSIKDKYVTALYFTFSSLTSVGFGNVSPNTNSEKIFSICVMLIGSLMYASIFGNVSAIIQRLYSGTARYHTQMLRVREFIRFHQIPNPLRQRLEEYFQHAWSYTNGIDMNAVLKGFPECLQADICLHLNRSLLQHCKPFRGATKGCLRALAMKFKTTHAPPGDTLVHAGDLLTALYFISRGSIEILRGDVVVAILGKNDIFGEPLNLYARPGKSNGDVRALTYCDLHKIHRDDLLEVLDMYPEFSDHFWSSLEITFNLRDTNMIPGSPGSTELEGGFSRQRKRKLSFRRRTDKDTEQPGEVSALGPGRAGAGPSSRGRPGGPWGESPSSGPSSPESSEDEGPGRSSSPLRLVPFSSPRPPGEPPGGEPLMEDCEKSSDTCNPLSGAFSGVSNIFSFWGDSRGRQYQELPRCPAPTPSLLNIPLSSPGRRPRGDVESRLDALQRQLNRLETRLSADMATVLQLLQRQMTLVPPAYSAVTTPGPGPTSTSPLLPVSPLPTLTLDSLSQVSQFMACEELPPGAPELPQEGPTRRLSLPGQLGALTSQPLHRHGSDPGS
The hERG inhibition test was performed on some of the example compounds of the present disclosure using the manual electrophysiological patch clamp method. The cell line was derived from HEK293 cells that overexpressed hERG potassium ion channels. The specific experimental protocol was developed by PharmaCore Labs with reference to literature published in peer-reviewed journals and was performed by PharmaCore Labs in accordance with its standard experimental operating procedures. The highest test concentration was 30 μM.
Background: Block of hERG is tested as a sign of cardiac risk.

Some results are limits rather than exact numbers.

In general, GI50 refers to the concentration at which growth is held to half of that of the control. The low end stands for more potent growth inhibition, the high end for less potent growth inhibition. One may read the AUC(0-t) as exposure summed from dosing to a finite time, without extrapolation to infinity. The term half-life denotes the time needed for the level to fall by half in the phase considered. A low value points to fast loss. As usually defined, the Cmax is the peak of the concentration-time curve. `COC[C@@H]1C[C@]2(CC[C@@H](CN3CCC4(CC3)CN(c3ncnnc3Oc3ccc(F)cc3C(=O)N(C(C)C)C(C)C)C4)CC2)NC1=O` [Example 38-2] yielded a GI50 in data set [1] of 21.8 nM. Further, in data set [2], the AUC(0-t) was 1980 ng·h/mL; the half-life was 0.83 h; the Cmax is 824 ng/mL; the “F, %” value is 55%.
In data set [1], `CCN(C(=O)c1cc(F)ccc1Oc1cncnc1N1CC2(CCN(C[C@H]3CC[C@]4(CC3)CC(COC)(COC)C(=O)N4)CC2)C1)C(C)C` [Example 17] had a GI50 of 14.2 nM. Also, in data set [2], the AUC(0-t) was 3220 ng·h/mL; the half-life is 1.12 h; the Cmax is 2120 ng/mL; the “F, %” value turned out to be 56%.
One may read the IC50 as the concentration that gives 50% inhibition. The low end stands for inhibition by little substance, the high end for a need for much substance. In data set [1], `COC[C@H]1C[C@]2(CC[C@@H](CN3CCC4(CC3)CN(c3ncnnc3Oc3ccc(F)cc3C(=O)N(C(C)C)C(C)C)C4)CC2)NC1=O` [Example 38-1] registered a GI50 of 115 nM. For the same molecule, in data set [2], the AUC(0-t) is 5060 ng·h/mL; the half-life was 1.06 h; the Cmax amounted to 2260 ng/mL; the “F, %” value was 67%. Moreover, in data set [3], the inhibition at 30 μM was found to be 10.3% and the IC50 was > 30000 nM.
With `CC(C)N(C(=O)c1cc(F)ccc1Oc1nncnc1N1CC2(CCN(CC3CC4CCC3CC43CCC(=O)N3)CC2)C1)C(C)C` (single isomer, unassigned) [Example 15-1a], growth in data set [1] was halved (GI50) at 82.5 nM. In data set [2], the AUC(0-t) is 6410 ng·h/mL; the half-life was 1.17 h; the peak concentration (Cmax) is 3030 ng/mL; the “F, %” value stood at 60%.
In the case of `COCC1(COC)C[C@]2(CC[C@@H](CN3CCC4(CC3)CN(c3ncnnc3Oc3ccc(F)cc3C(=O)N(C(C)C)C(C)C)C4)CC2)NC1=O` [Example 20], the GI50 in data set [1] is 35.2 nM. Further, in data set [2], the AUC(0-t) was 2180 ng·h/mL; the half-life was 1.88 h; the Cmax was 919 ng/mL; the “F, %” value was determined as 84%. In data set [3], the inhibition at 30 μM was 13.2% and the IC50 is > 30000 nM.
